The results in this text go back to patent publication US8859625B2, “Methods to prepare penta-1,4-dien-3-ones and substituted cyclohexanones and derivatives with antitumoral and antiparasitic properties, the compounds and their uses” (Universidade Bandeirante de Sao Paulo-Academia, Paulista …, priority 2006, dated 2014).

The test system of this assay is promastigotes of Leishmania (isolate D.C.L.). In words: Promastigote viability by MTT, D.C.L. isolate, Warren medium. As to conditions: for O.D. (optical density at 595/690 nm wavelength): Warren medium. Format: cell-based. The protocol:
Viability and/or cellular proliferative assays of promastigote and amastigote forms are also performed by the MTT (diphenyl tetrazolium 3-[4,5-dimethylthiazol-2il]2,5-bromide) method as described by Moreira, et al. (Moreira, M. E. C., Del Portillo, H. A., Milder, R. V., Balanco, J. M. F. and Barcinski, M. A. Heat shock induction of apoptosis in promastigotes of the unicellular organism Leishmania (Leishmania) amazonensis, J. Cell Physiol 167, 305-313, 1996), modified.
After incubation of parasitic forms with the compounds, as described above, for predetermined periods of time for each experiment (24, 48, 72 hours, etc.), an 1.0 mL aliquot of cellular suspension is collected from each culture tube or vial and transferred to microcentrifuge tubes, where they are centrifuged at 14.000 rpm for 3 minutes, the culture medium is aspirated and discharged. To the sedimented cells are add 200 μL of PBS. After that, the volume in PBS of the cellular suspensions is splitted into two wells (duplicates of 100 μL each) of a 96 well culture plate. To each duplicate, […] of MTT (5 mg/mL stock solution, […]) are added. After 1 h or 1 h 30 min, at a temperature of 22° C. (promastigotes) or 34° C. (amastigotes), 100 μL of 10% SDS are added to each well to interrupt the reaction, to lyse the cells and to dissolve the formazan crystals, resulting in an homogeneous blue solution appropriate to the absorbance measure by a spectrophotometer for culture microplates (3550 BIORAD model, Richmond, Calif.), at 595 nm as test wavelength and 690 nm as the reference wavelength.
The optical density (O.D.) values correspond to MTT enzymatic reduction by the metabolic active cells. Consequently, the O.D. is directly proportional to the number of viable cells of the cellular suspension. The progressive increase of O.D. indicates cellular proliferation. Results are expressed as arithmetic average of the optical density duplicates.
This experiment is developed in the Warren medium using an initial inoculum of 2.0×10^6/mL of the medium for the isolates. Cultures were at the day 7^h of passage and at the final exponential phase growth (day 6 of incubation). The results of viability determination for the Leishmania (isolate L.C.L.) promastigotes, incubated in Warren medium and in the presence of HB-1, are shown in the next Table and in FIG. 36. The culture final volume is of 5 mL and the MTT reactions are processed in 1 h and 30 minutes of incubation, beginning with 1.0 mL of culture.
In the next Table and in FIG. 37 are shown the results of viability determination for the promastigotes of Leishmania (isolate D.C.L.) incubated in Warren medium in the presence of HB-1.

With `COc1cc(C=CC(=O)C=Cc2ccc(O)c(OC)c2)ccc1O` [HB-1, 1,5-Bis-(4-hydroxy-3-methoxy-phenyl)-penta-1,4-dien-3-one], the “O.D. (optical density at 595/690 nm wavelength)” value amounted to 0.299 (HB-1 5 μg/mL, 24 hours); 0.682 (HB-1 5 μg/mL, 48 hours); 0.785 (HB-1 5 μg/mL, 72 hours); 0.083 (HB-1 10 μg/mL, 24 hours); 0.059 (HB-1 10 μg/mL, 48 hours); 0.017 (HB-1 10 μg/mL, 72 hours). Further, the “O.D. (optical density at 595/690 nm wavelength)” value runs as follows: (HB-1 10 μg/mL, 96 hours) 0.016; (HB-1 20 μg/mL, 24 hours) 0.025; (HB-1 20 μg/mL, 48 hours) 0.012; (HB-1 20 μg/mL, 72 hours) 0.016; (HB-1 20 μg/mL, 96 hours) 0.013. Besides, the effect in words result (HB-1 from 10 μg/mL) was “leishmanicide effect”.
